Experimental data taken from patent US5883102A, “Pharmaceutically active compounds” (Astra Pharmaceuticals Limited, priority 1995, dated 1999).
Structures can show the parent of a compound that is named as a salt.

Target: T1, human form of induced nitric oxide synthase (Homo sapiens, UniProt P35228)
T1 construct: Nitric oxide synthase is produced by cells in response to interferon; endogenous in cells; host or cells: DLD1 human colon adenocarcinoma cell line (European Collection of Animal Cell Culture, cell line number 90102540), induced with IL-1beta and IFN-gamma; crude lysate
Assay: activity against the human form of induced nitric oxide synthase, lysate of induced human colon adenocarcinoma cell line DLD1
Format: biochemical
Conditions: IL-1β and IFN-γ induced, preincubated 1 hour at 37° C., then 1 hour at 37° C., read-out: IC50 (concentration of drug substance which gives 50% enzyme inhibition in the assay)

IC50 | SMILES
< 25 µM | NC1=NC(c2ccccc2)Nc2ccccc21 (centres unmarked) [Example 1, 1,2-Dihydro-2-phenyl-4-quinazolinamine hydrochloride]
< 25 µM | CCOC(=O)NCCC1N=C(N)c2ccccc2N1 (centres unmarked) [Example 52, Ethyl N-(4-Amino-1,2-dihydroquinazolin-2-ylethyl)carbamate hydrochloride]
